For 35 molecules, melting point results are on record in a melting point compilation (Tetko et al.; mined from patent text by program, amines drawn as free bases though some values may be those of a salt).

Take `Cc1nc2nc(C(F)(F)F)cc(-c3cccnc3)n2n1`: the melting point (as a rule, the temperature, or range, at which the solid turns liquid) fell in the range of 195 to 197 °C. Molecule `O=C(NCc1ccccc1)c1[nH]c2ccc(Cl)cc2c1S(=O)(=O)c1ccccc1` registered a melting point of 249 to 251 °C. In the case of `COc1ccc(Cn2nnc(-c3cccc(C(=O)Cl)c3)n2)cc1`, the melting point was in the range of 122 to 124 °C. To `CC(C)CCCC(C)C1CCC2C3CC=C4CC(OCCCCCCS)CCC4(C)C3CCC12C` (stereo not given) belongs 89 to 90 °C; to `Cc1nc2c(O)cc(C(=O)N(C)C)cc2n1C`, 248 °C; to `Cc1cc(C)cc(Oc2c(C=O)c(C)[nH]c(=O)c2I)c1`, above 260 °C.

As to `COc1ccc2c(n1)c(CCNC(=O)c1ccco1)c1n2CCCc2ccccc2-1`, the melting point was 70 to 71 °C.

In turn, `CN(Cc1cccc2c1CN(C1CCC(=O)NC1=O)C2=O)C(=O)Nc1ccc(Cl)cc1` (stereo not given) returned a melting point of 255 to 257 °C. To `O=C(C[C@H]1CC[C@@H](C(=O)O)N1Cc1ccccc1)N[C@@H](Cc1ccc(OCc2c(Cl)cccc2Cl)cc1)C(=O)O` belongs 198 to 202 °C; to `CC#CNC(=O)NC(=NC(=O)N(C)C)SC`, 88 to 91 °C. For the molecule `COCCN(CCOC)C(=O)c1n[nH]c2c(=O)[nH]c3cc(Cl)ccc3c(=O)c12`, the melting point fell in the range of 207 to 209 °C. Turning to `COC(=O)c1cc(O)c([N+](=O)[O-])cc1C(=O)OC`, the melting point was in the range of 82 to 85 °C. Then `O=S(=O)(Nc1ccc2c(OCc3csc(-c4ccc(Cl)nc4)n3)cccc2c1)C(F)(F)F`, with 154 to 156 °C. In turn, `O=C1C[C@@H](NC(=O)OCc2ccccc2)C(=O)N1` had a melting point of 117 to 118 °C. Then `CCC12CCC3C4CCC(=O)C=C4CCC3C1=CC=C2c1ccccc1` (stereo not given), with 191 °C; and `COc1cc2c(cc1OC)-c1c(C#N)sc(=S)n1CC2`, with 228 °C; and `CCOC(=O)c1c(C)cc(NC(=O)CCl)c(C(=O)O)c1C`, with 124 to 125 °C. Molecule `CC(=O)NCC1CN(c2ccc(S(C)=O)c(F)c2)C(=O)O1` (stereo not given) showed a melting point of 143 to 145 °C. Then `CC(Oc1ccc(C(=O)O)cc1)c1ccccc1OCc1ccccc1` (stereo not given), with 203 to 204 °C. For the molecule `N#Cc1c(NC2CCCCC2)cccc1-c1ccccc1`, the melting point was 125 to 126 °C. To `O=C(O)c1ccc2oc3c(c(=O)c2c1)CCCC3=Cc1ccccc1` belongs 284 to 286 °C; to `CCCCN(C)c1c(-c2ccc(OC)cc2)sc2ccccc12`, 61 to 62 °C; to `O=C1c2cccc(Br)c2C(=O)N1CCCCCn1cncn1`, 102 to 104 °C. `COc1ccc2c(C(C)=O)noc2c1` came in with a melting point of 64 to 67 °C.

Turning to `CC(=O)Nc1c(C)ccc(N)c1C`, the melting point was 195 to 197 °C. Consider `Cc1noc(NS(=O)(=O)c2ccccc2-c2ccc(-c3ncco3)cc2CN(C)C(=O)C(C)(C)c2ccccc2)c1C`, for which the melting point was 130 to 138 °C. For the molecule `N#Cc1cc(Br)ccc1NC(=O)c1cccc(S(=O)(=O)N2CCOCC2)c1`, the melting point was in the range of 185 to 187 °C. As to `COc1ccc2[nH]c(Sc3ccc(C=O)o3)nc2c1`, the melting point lay in the range of 94 to 99 °C.

Molecule `CCOC(=O)c1ccc(CN2CCN(c3cc(-c4ccccc4)c4ccc(=O)ccn34)CC2)cc1` returned a melting point of 129 °C. To `COc1ccc(N2CCOCC2)c2sc(C(=O)NCC(=O)c3cccs3)nc12` belongs 165 °C; to `CC(O)(c1nc2cc(S(=O)(=O)c3ccccc3)ccc2s1)C(F)(F)F` (stereo not given), 126 to 128 °C.

`Cc1nc2c(O)c(CCC(=O)c3cccs3)c(C(=O)N(C)C)cn2c1C` registered a melting point of 234 °C. To `CC(CNCc1ccccc1O)NCc1ccccc1O` (stereo not given) belongs 57 to 58 °C; to `CCCn1ccc2c(c1=O)C(c1ccccc1)C(C(=O)OCC)=C(C)N2` (stereo not given), 215 to 217 °C. Then `Cc1cccnc1-c1ccccc1Nc1nc(Nc2ccc3c(c2)C(C)(C)CCC(=O)N3)ncc1Cl`, with 130 to 135 °C.
